Results on five compounds are retold here after patent publication US20050233058A1, “Aminoacid derivatives of dicarboxylic acids as flavor ingredients” (priority 2004, published 2005).

The experiment is described as follows: Organoleptic description of the compounds (umami, mouthfeel). Particulars: for Additional feeling imparted: in a meet type application.

On to `O=C(O)/C=C\C(=O)N[C@@H](CCC(=O)O)C(=O)O` [Maleyl-Glu, (Z)-N-(3-carboxy-2-propenoyl)-L-glutamic acid], for which the Additional feeling imparted entry is “slightly more juicy feeling”.
Turning to `O=C(O)CCC(=O)N[C@@H](CCC(=O)O)C(=O)O` [succinoyl-Glu, N-(3-carboxypropionyl)-glutamic acid], the “Taste / organoleptic character of the compound” value is reported as “slightly acidic note together with a well perceivable umami taste or character having a broth connotation”.
Take `CC(C)C[C@H](NC(=O)CCCC(=O)O)C(=O)O` [Glutaryl-Leu, N-(4-carboxybutanoyl)-L-leucine]: the Additional feeling imparted entry is on record as “slightly more fatty feeling”.
As for `CC(C)C[C@H](NC(=O)CCC(=O)O)C(=O)O` [succinoyl-Leu, N-(3-carboxypropionyl)leucine], the “Taste / organoleptic character of the compound” value is “slightly more acidic and slightly less umami taste than the one of succinoyl-Glu”.
Take `O=C(O)CCCC(=O)N[C@@H](CCC(=O)O)C(=O)O` [glutaryl-Glu, N-(4-carboxybutanoyl)L-glutamic acid]: the Additional feeling imparted result was “slightly more fatty feeling”.
